Numbers after ± are expanded uncertainties.
Assays:
[1] = refractive index (Na D-line) (dimensionless); conditions: 100 kPa, Liquid, Standard Abbe refractometry
[2] = 100 kPa, Liquid; for viscosity: Capillary tube (Ostwald / Ubbelohde) method; for mass density: Vibrating tube method
[3] = relative permittivity at various frequencies (dimensionless); conditions: 100 kPa, Liquid, Frequency=30 MHz, Parallel plate capacitor
[4] = refractive index (Na D-line) (dimensionless); xn = mol fraction of the nth substance listed; conditions: 100 kPa, Liquid, Standard Abbe refractometry, x1 = 1
[5] = xn = mol fraction of the nth substance listed; conditions: 100 kPa, Liquid, x1 = 1; for viscosity: Capillary tube (Ostwald / Ubbelohde) method; for mass density: Vibrating tube method
[6] = relative permittivity at various frequencies (dimensionless); xn = mol fraction of the nth substance listed; conditions: 100 kPa, Liquid, Frequency=30 MHz, Parallel plate capacitor, x1 = 1

CO [methanol]
Conditions | mass density, [2] [kg/m3] | refractive index, [1] | relative permittivity, [3] | viscosity, [2] [mPa·s]
293.15 K | 791.414 ± 1.9 | 1.32866 ± 0.004 | 33.6 ± 0.67 | 0.585 ± 0.012
298.15 K | 786.716 ± 1.9 | 1.32682 ± 0.004 | 32.62 ± 0.65 | 0.545 ± 0.011
303.15 K | 782.032 ± 1.9 | 1.32444 ± 0.004 | 31.67 ± 0.63 | 0.508 ± 0.011

NC1CCCCC1 [cyclohexylamine]
Conditions | mass density, [2] [kg/m3] | refractive index, [1] | relative permittivity, [3] | viscosity, [2] [mPa·s]
293.15 K | 866.86 ± 2.1 | 1.45934 ± 0.0044 | 4.65 ± 0.09 | 2.142 ± 0.046
298.15 K | 862.315 ± 2.1 | 1.45663 ± 0.0044 | 4.56 ± 0.09 | 1.908 ± 0.041
303.15 K | 857.774 ± 2.1 | 1.45325 ± 0.0044 | 4.47 ± 0.09 | 1.697 ± 0.036

CO [methanol] + NC1CCCCC1
Conditions | mass density, [5] [kg/m3] | refractive index, [4] | relative permittivity, [6] | viscosity, [5] [mPa·s]
293.15 K | 791.414 ± 1.9 | 1.32866 ± 0.004 | 33.6 ± 0.67 | 0.585 ± 0.012
298.15 K | 786.716 ± 1.9 | 1.32682 ± 0.004 | 32.62 ± 0.65 | 0.545 ± 0.011
303.15 K | 782.032 ± 1.9 | 1.32444 ± 0.004 | 31.67 ± 0.63 | 0.508 ± 0.011
